Values after ≈ are worked out from the molar mass of the structure shown.

Series [1] deals with Hep3B human hepatocellular carcinoma cells. The series can be described thus: MTS tetrazolium cell proliferation assay, 72-h exposure. It is filed as cell-based. Conditions: normoxic (21% O2), read-out: IC50 Normoxic (N). An excerpt: Anti-proliferative assay. The human hepatocellular carcinoma cell line Hep3B was purchased from American Type culture Collection (ATCC, Manassas, Va.). Dulbecco's Modified Eagle Medium (DMEM) and penicillin/streptomycin (P/S) were obtained from GIBCO Invitrogen. Fetal Bovine serum (FBS) was obtained from Thermo Scientific Hyclone. Dimethyl sulfoxide (DMSO-Hybri-Max) was purchased from Sigma-Aldrich Co. and the CellTiter 96 AQueous One Solution Cell Proliferation Assay (MTS) was acquired from Promega Corp. Hep3B cells were maintained in DMEM supplemented with 10% FBS and 1× P/S solution. Cultures were incubated at 37° C. in a 5% CO2 atmosphere with 99% humidity. Stock solutions of test compounds were prepared in DMSO for use in the cell culture viability assays.
MTS tetrazolium cell proliferation assay. The viability of Hep3B cells exposed to the synthesized compounds was determined by the MTS assay. Briefly, Hep3B cells were plated in 96-well plates at a density of 3.0×10^3 cells/well and incubated for 24-h before treatment. At the initiation of treatment, the growth media was replaced with 200 μL of media containing increasing concentrations of the test compounds in triplicate wells. The final DMSO concentration in the media was 1.0% including the media added to the control wells minus the test compound. After a 72-hour incubation, 40 μL of MTS solution was added to each well and the plates were incubated for an additional 3.0 hours. The plates were then read at 490 nm on a Biotek Instruments PowerWave 200 microplate reader. For each experiment the percent growth inhibition relative to the control (no drug addition) was calculated and a dose inhibition curve was generated. The concentration of drug required to inhibit cell growth by 50% (IC50) compared to the control cells was then determined by non-linear regression using PSI-Plot software (Poly Software International).
Antiproliferative activity. The anti-cancer activities of the parent compounds 3 and 8 and the conjugated compounds 7a-d and 10a-d were tested against Hep3B human hepatocellular carcinoma cells in culture.

Series [2] can be described thus: Determination of water solubility by UV absorbance of a saturated solution. Conditions: for Increment (solubility): PEG tether compound in comparison with the —CH2CH2— tether compound of the same pair (7c/7a, 7d/7b, 10c/10a, 10d/10b); for solubility at 1 h: thermodynamic from solid, water, saturated solution, sonicated at 25° C., stirred at room temperature 1.0 h, filtered. It is filed as physicochemical. Here is the method: The aqueous solubility of all eight compounds was assessed by using a technique involving measurement of their UV absorbance^29.
Determination of Water Solubility of Compounds 7a-d and 10a-d. A saturated solution was prepared by addition of a test compound (7a-d and 10a-d; ca. 1.00 mg) to water (1.00 mL), which was sonicated at 25° C. for 5.0 min and stirring at room temperature for an additional 1.0 h. After filtration with Millipore filters (0.45-μm-pore-size polyvinylidene fluoride), the supernatant was analyzed by UV spectroscopy with concentration determined from absorbance, standardized against calibration data. Standard curves for each compound were obtained by plotting absorbance against concentration. The concentration range of the standard solutions was 1.0-10 μg/mL. For all standards, their curves were linear with γ>0.996.

Series [3] deals with Hep3B human hepatocellular carcinoma cells. The series can be described thus: Hypoxia targeting assay, 5-h exposure then 5 days growth, MTS. It is filed as cell-based. The settings on record: for Ratio IC50 (N)/IC50 (H): normoxic versus hypoxic. Here is the method: Hypoxia targeting assay. Hep3B cells, plated in 96-well plates at a density of 3.0×10^3 cells/well, were incubated overnight and then treated with the test compounds for 5.0 hours at under hypoxic (1% O2) or normoxic (21% O2) conditions. Exposure of cells to hypoxia was carried out in a PROOX C-Chamber with O2 and CO2 levels modulated by a PROOX Model C21 Controller (BioSpherix). At the end of the treatment period, the wells were washed with phosphate buffered saline (PBS) and fresh compound-free media was added. The cells were cultured for an additional 5 days under normoxic conditions and then assayed for cell proliferation using the MTS assay.
Hypoxia targeting. Nitroimidazoles are converted to reactive compounds in hypoxic cells. Therefore it is of importance to compare the antiproliferative activities of the nitroimidazole conjugated compounds against Hep3B cells under normoxic and hypoxic conditions. In these experiments, Hep3B cells in culture were treated with each of the conjugated compounds 7c-d, 10c-d, or the parent compounds 3 or 8 for a 5.0-hour period under normoxic (21% O2) or hypoxic (1.0% O2) conditions. After treatment, the cells were returned to normal conditions and assayed for proliferation after 5 days of additional growth. […] The ratio between the IC50 values for each drug under normoxic versus hypoxic culture conditions was computed and used as a measure of the relative increase in potency.

Series [4] deals with LNCaP human prostate cancer cells. As to the kind of experiment: Western blot analysis of 2-nitroimidazole induced protein adducts in cell culture. It counts as cell-based. Conditions: 80 μM, 6 hours normoxic then 6 hours hypoxic or normoxic. The protocol:
Western blot analysis of 2-nitroimidazole induced protein adducts in LNCaP cell cultures. Exponentially growing LNCaP human prostate cancer cells were treated with DMSO, 80 μM M3N-PEG-2NI or Hypoxyprobe-1 in standard media for 6 hours under normoxic conditions and then under hypoxic or normoxic conditions for additional 6 hours. Afterward the media was aspirated, the cells washed and ice cold RIPA lysis buffer was added and the cells lysed on ice for 15 minutes. The samples were centrifuged and the lysate collected. Cellular proteins in the extracts were analyzed for the presence of protein adducts using standard western blotting technique. The primary antibody was PAb2627 polyclonal antibody (1:200) directed against Hydroxyprobe-1 protein adducts. The secondary antibody was Anti-Rabbit HRP conjugate (1:2000). Detection was by chemiluminescence

For series [5], the system named is subcutaneous LNCaP prostate cancer cell explants. The series can be described thus: Immunofluorescence analysis of 2-nitroimidazole induced protein adducts in mouse tumor explants. It is filed as in vivo, nude mice. The settings on record: daily intravenous tail vein injection for three weeks. The protocol: Immunofluorescence analysis of 2-nitroimidazole induced protein adducts in mouse tumor explants. Nude mice with subcutaneous LNCaP prostate cancer cell explants were administered Hydroxyprobe-1, M3N or M3N-PEG-2NI for three weeks by daily intravenous tail vein injection with an additional injection 3 hours prior to euthanization. Tumors were removed from the euthanized mice by dissection and incubated in 30% sucrose/PBS overnight at 4° C. Excess sucrose was removed and the tissue was incubated in 30% sucrose/PBS:OCT (1:1) for 1 hour at room temperature. Afterward the tissue was frozen in 100% OCT. Frozen sections of […] were prepared and fixed in 4% PFA/PBS for 1 hour at room temperature. The sections were blocked overnight at 4° C. with 5% goat serum/PBS or at room temperature for 1 hour and then incubated with Hydroxyprobe-1 rabbit antiserum (1:200) overnight at 4° C. After three washes with PBS, the secondary antibody, mouse anti rabbit-FITC (1:1000) was added for 1 hour at room temperature. The sections were mounted using Vectashield and fluorescently imaged.

Setting [6] is: Homo sapiens, hypoxic (1.0% O2), then 5 days normoxic growth, read-out: IC50 Hypoxic (H).
Where [7] appears, read: Homo sapiens, normoxic (21% O2), then 5 days growth, read-out: IC50 Normoxic (N).
Setting [8] is: hypoxic (1.0% O2), then 5 days normoxic growth, read-out: IC50 Hypoxic (H).

Turning to `COc1ccc(C[C@H](C)[C@H](C)Cc2ccc(OC)c(OCCn3cnc([N+](=O)[O-])c3)c2)cc1OC` (racemic) [Compound 7a, (±)-(2R,3S)-4-(3,4-Dimethoxyphenyl)-1-[4-methoxy-3-[2-(4-nitro-1H-imidazol-1-yl)ethoxy]phenyl]-2,3-dimethylbutane], in series [1], the IC50 is 15.8 ± 1.6 µM. Besides, in series [2], the “Increment (solubility)” value is on record as 10.5 fold and the concentration in solution (solubility at 1 h) came to 1.76 µg/mL (≈ 3.64 µM).

`COc1ccc(C[C@H](C)[C@H](C)Cc2ccc(OC)c(OCCn3ccnc3[N+](=O)[O-])c2)cc1OC` (racemic) [Compound 7b, (±)-(2R,3S)-4-(3,4-Dimethoxyphenyl)-1-[4-methoxy-3-[2-(2-nitro-1H-imidazol-1-yl)ethoxy]phenyl]-2,3-dimethylbutane]: in series [1], the IC50 turned out to be 21.8 ± 4.5 µM. Also, in series [2], the “Increment (solubility)” value came out at 8.1 fold and the solubility at 1 h turned out to be 1.64 µg/mL (≈ 3.39 µM).

With `COc1ccc(C[C@H](C)[C@H](C)Cc2ccc(OC)c(OCCOCCOCCOCCn3cnc([N+](=O)[O-])c3)c2)cc1OC` (racemic) [Compound 7c, (±)-(2R,3S)-4-(3,4-Dimethoxyphenyl)-1-[4-methoxy-3-[12-(4-nitro-1H-imidazol-1-yl)-1,4,7,10-tetraoxadodecanyl]phenyl]-2,3-dimethylbutane], the IC50 worked out at 64.3 ± 15.1 µM in series [3] (setting [6]), 104 ± 17.6 µM in series [3] (setting [7]) and 13 ± 5.1 µM in series [1]. In addition, in series [3], the “Ratio IC50 (N)/IC50 (H)” value came out at 1.62. Besides, in series [2], the concentration in solution (solubility at 1 h) came to 18.5 µg/mL (≈ 30.1 µM).

As to `COc1ccc(C[C@H](C)[C@H](C)Cc2ccc(OCCn3cnc([N+](=O)[O-])c3)c(OC)c2)cc1OC` (racemic) [Compound 10a, (±)-(2R,3S)-4-(3,4-Dimethoxyphenyl)-1-[3-methoxy-4-[2-(4-nitro-1H-imidazol-1-yl)ethoxy]phenyl]-2,3-dimethylbutane], the IC50 in series [1] was determined as 18.7 ± 4.1 µM. In series [2], the “Increment (solubility)” value is 6.5 fold and the solubility at 1 h is 1.63 µg/mL (≈ 3.37 µM).

Consider `COc1ccc(C[C@H](C)[C@H](C)Cc2ccc(OCCn3ccnc3[N+](=O)[O-])c(OC)c2)cc1OC` (racemic) [Compound 10b, (±)-(2R,3S)-4-(3,4-Dimethoxyphenyl)-1-[3-methoxy-4-[2-(2-nitro-1H-imidazol-1-yl)ethoxy]phenyl]-2,3-dimethylbutane], for which the IC50 in series [1] is 24.8 ± 8.7 µM. Also, in series [2], the “Increment (solubility)” value is listed as 11.2 fold and the solubility at 1 h is 1.7 µg/mL (≈ 3.52 µM).

As for `COc1ccc(C[C@H](C)[C@H](C)Cc2ccc(OCCOCCOCCOCCn3cnc([N+](=O)[O-])c3)c(OC)c2)cc1OC` (racemic) [Compound 10c, (±)-(2R,3S)-4-(3,4-Dimethoxyphenyl)-1-[3-methoxy-4-[12-(4-nitro-1H-imidazol-1-yl)-1,4,7,10-tetraoxadodecanyl]phenyl]-2,3-dimethylbutane], the IC50 stood at 52.1 ± 3.8 µM in series [3] (setting [6]), 140 ± 33.5 µM in series [3] (setting [7]) and 12.5 ± 4.1 µM in series [1]. In addition, the “Ratio IC50 (N)/IC50 (H)” value in series [3] is 2.69. Moreover, in series [2], the concentration in solution (solubility at 1 h) was 10.5 µg/mL (≈ 17.1 µM).

As to `COc1ccc(C[C@H](C)[C@H](C)Cc2ccc(OCCOCCOCCOCCn3ccnc3[N+](=O)[O-])c(OC)c2)cc1OC` (racemic) [Compound 10d, (±)-(2R,3S)-4-(3,4-Dimethoxyphenyl)-1-[3-methoxy-4-[12-(2-nitro-1H-imidazol-1-yl)-1,4,7,10-tetraoxadodecanyl]phenyl]-2,3-dimethylbutane], the IC50 in series [3] (setting [6]) was found to be 49.1 ± 4.9 µM; in series [3] (setting [7]), 119 ± 42.8 µM; in series [1], 13.4 ± 3.4 µM. Moreover, the “Ratio IC50 (N)/IC50 (H)” value in series [3] is given as 2.42. In series [2], the solubility at 1 h came to 19.1 µg/mL (≈ 31.1 µM).

As for `COc1ccc(CC(C)C(C)Cc2ccc(OC)c(OC)c2)cc1O` (stereo not drawn) [Compound 3, trimethyl NDGA, reference compound], the IC50 in series [3] (setting [8]) is 99 ± 0.6 µM. Besides, the “Ratio IC50 (N)/IC50 (H)” value in series [3] was 1.58.

Consider `COc1ccc(CC(C)C(C)Cc2ccc(OC)c(OC)c2)cc1O` (stereo not drawn) [Compound 8, trimethyl NDGA, reference compound], for which the IC50 in series [3] (setting [8]) was 87.6 ± 8.7 µM. Further, the “Ratio IC50 (N)/IC50 (H)” value in series [3] was 1.28.

Consider `Cl.O=[N+]([O-])c1nccn1CC(O)CN1CCCCC1` (stereo not drawn) [Hydroxyprobe-1], for which, in series [4], the “Protein adducts by western blot (PAb2627 antibody)” value was “showed evidence of protein adducts”. The “Protein adducts in tumor sections by immunofluorescence” value in series [5] is reported as “Protein-adducts were also found”.

For the origin of these results see patent publication US9084779B2, “Conjugates of nitroimidazoles and their use as chemotherapeutic agents” (The Johns Hopkins University, priority 2011, dated 2015).
